Measured values from publication PMC9570109, “Improved Trimethylangelicin Analogs for Cystic Fibrosis: Design, Synthesis and Preliminary Screening” (International Journal of Molecular Sciences, 2022).

Key:
salmon testes DNA = experiment: Photoadduct formation with DNA under UVA irradiation (TLC analysis); settings: 15 J/cm2 UVA
Protocol: The total energy that struck the sample was monitored by means of a radiometer (Variocontrol, Waldmann, Villingen-Schwenningen, Germany), equipped with a Variocontrol UV Sensor (Waldmann). The radiant power emitted by the UVA lamp was about […]. The samples were maintained at room temperature during irradiation.
The test compounds were dissolved in ethanol (2 mg/mL) and salmon testes DNA (Sigma-Aldrich) was dissolved in 10 mM NaCl and 1 mM EDTA solution (1.5 × 10^−3 M). Each test solution (250 μL) was added dropwise to the DNA solution (5 mL). The mixture was irradiated with 15 J/cm2 UVA light in a glass dish for 1 h. After irradiation, the DNA was precipitated with 1 M NaCl and two volumes of cold ethanol; the precipitated DNA was collected, washed with 80% ethanol, dried, and then dissolved in water. To obtain hydrolysis, the final solution was acidified with 1 M HCl, heated at 100 °C for 1 h, neutralized with NaOH and extracted three times with chloroform. Then, all of the organic layers were collected, dried under a high vacuum, and dissolved in ethanol. The hydrolyzed mixtures were separated by thin layer chromatography (TLC; F254 plates, 0.25 mm, Merck, Darmstadt, Germany) eluting with EtOAc/EtOH (9:1). The plates were analyzed with a Mineral Light Lamp VL-4LC VILBERT-LOURMAT (Vilber, Marne-la-Vallée, France).

[1] = system: Salmonella typhimurium TA100; experiment: Ames mutagenicity assay, plate incorporation, TA100; format: cell-based
Protocol: (§1) The mutagenicity assay was performed for the test compounds following the plate incorporation method with the histidine-requiring Salmonella typhimurium mutant TA97A, TA98, TA100, and TA1535 strains purchased by Molecular Toxicology Inc. (Boone, NC, USA; moltox.com). All strains (100 µL per plate of fresh overnight cultures) were checked with and without the addition of 0.5 mL of a 5% S9 exogenous metabolic activator (S9 mix). The lyophilized post-mitochondrial supernatant S9 mix (Aroclor 1254-induced, Sprague–Dawley male rat liver in 0.154 M KCl solution), commonly used for the activation of pro-mutagens in mutagenic metabolites (Molecular Toxicology, Inc., Boone, NC, USA), was stored at −80 °C before use. The concentration tested for all the samples were 5, 10, 20, 50, and 100 µL/plate from a stock solution of 500 nM. A fully grown culture of the appropriate tester strain (0.1 mL) was added to 2 mL molten top agar (0.6% agar, 0.6% NaCl, 0.5 mM L-histidine/biotin solution) at 46 °C, together with 0.1 mL of each sample solution at different concentrations, and 0.5 mL S9 mix for assays with metabolic activation. The ingredients were thoroughly mixed and poured onto minimal glucose agar plates (1.5% agar in 2% Vogel–Bonner medium E with 5% glucose solution). DMSO was used as negative a control (100 µL/plate). Positive controls were prepared as follows: 2-aminoanthracene (2 µg/plate) and 2-nitrofluorene (2 µg/plate) for TA 97A, TA98 and TA1535 with and without metabolic activator (S9 mix), respectively; 2-aminoanthracene (2 µg/plate) and sodium azide (2 µg/plate) for TA100, with and without metabolic activator (S9 mix), respectively. The plates were incubated at 37 °C for 72 h and then his+ revertants were checked and counted using a Colony Counter 560 Suntex (Antibioticos, Italy). A sample was considered mutagenic when the observed number of colonies was at least twofold over the spontaneous level of revertants. All determinations were made in triplicate. Statistical analysis: relative standard deviations were calculated using the statistical software STATISTICA 6.0 (StatSoft, Italia srl, Vigonza, Italy). […]
(§2) Salmonella typhimurium TA97A Salmonella typhimurium TA98 Salmonella typhimurium TA100 Salmonella typhimurium 1535 […]
(§3) average SD t/c average SD t/c average SD t/c average SD t/c average SD t/c average SD t/c average SD t/c average SD t/c […]
(§4) *Significant values according to Ames computation (Maron & Ames, 1983); DMSO, C+: negative and positive controls respectively; SD: Standard Deviation; t/c: number of revertant colonies in treated plates/number of revertant colonies in […]

[2] = system: Salmonella typhimurium TA98; experiment: Ames mutagenicity assay, plate incorporation, TA98; format: cell-based
Protocol: as §1, §2, §3, §4

[3] = system: Salmonella typhimurium TA97A; experiment: Ames mutagenicity assay, plate incorporation, TA97A; format: cell-based
Protocol: as §1, §2, §3, §4

[4] = TA100, +S9, 5 µL/plate of 500 nM stock
[5] = TA100, +S9, 10 µL/plate of 500 nM stock
[6] = TA100, +S9, 20 µL/plate of 500 nM stock
[7] = TA100, +S9, 50 µL/plate of 500 nM stock
[8] = TA100, +S9, 100 µL/plate of 500 nM stock
[9] = TA100, -S9, 5 µL/plate of 500 nM stock
[10] = TA100, -S9, 10 µL/plate of 500 nM stock
[11] = TA100, -S9, 20 µL/plate of 500 nM stock
[12] = TA100, -S9, 50 µL/plate of 500 nM stock
[13] = TA100, -S9, 100 µL/plate of 500 nM stock
[14] = TA98, +S9, 5 µL/plate of 500 nM stock
[15] = TA98, +S9, 10 µL/plate of 500 nM stock
[16] = TA98, +S9, 20 µL/plate of 500 nM stock
[17] = TA98, +S9, 50 µL/plate of 500 nM stock
[18] = TA98, +S9, 100 µL/plate of 500 nM stock
[19] = TA98, -S9, 5 µL/plate of 500 nM stock
[20] = TA98, -S9, 10 µL/plate of 500 nM stock
[21] = TA98, -S9, 20 µL/plate of 500 nM stock
[22] = TA98, -S9, 50 µL/plate of 500 nM stock
[23] = TA98, -S9, 100 µL/plate of 500 nM stock
[24] = +S9, 5 µL/plate of 500 nM stock
[25] = +S9, 10 µL/plate of 500 nM stock
[26] = +S9, 20 µL/plate of 500 nM stock
[27] = +S9, 50 µL/plate of 500 nM stock
[28] = +S9, 100 µL/plate of 500 nM stock
[29] = -S9, 5 µL/plate of 500 nM stock
[30] = -S9, 10 µL/plate of 500 nM stock
[31] = -S9, 20 µL/plate of 500 nM stock
[32] = -S9, 50 µL/plate of 500 nM stock
[33] = -S9, 100 µL/plate of 500 nM stock

Compound: Cc1cc(=O)oc2c1cc(-c1ccc(N)cc1)c1occ(C)c12 [pANDMA]
- photoadduct formation with DNA upon UVA irradiation (salmon testes DNA): only the unchanged bands
- revertant colonies, average [1, 4]: 175.0
- t/c (revertant colonies treated/untreated plates) [1, 4]: 1.0
- revertant colonies, average [1, 5]: 181.5
- t/c (revertant colonies treated/untreated plates) [1, 5]: 1.1
- revertant colonies, average [1, 6]: 224.0
- t/c (revertant colonies treated/untreated plates) [1, 6]: 1.3
- revertant colonies, average [1, 7]: 232.0
- t/c (revertant colonies treated/untreated plates) [1, 7]: 1.4
- revertant colonies, average [1, 8]: 235.5
- t/c (revertant colonies treated/untreated plates) [1, 8]: 1.4
- revertant colonies, average [1, 9]: 192.0
- t/c (revertant colonies treated/untreated plates) [1, 9]: 1.0
- revertant colonies, average [1, 10]: 189.0
- t/c (revertant colonies treated/untreated plates) [1, 10]: 1.0
- revertant colonies, average [1, 11]: 204.5
- t/c (revertant colonies treated/untreated plates) [1, 11]: 1.0
- revertant colonies, average [1, 12]: 189.0
- t/c (revertant colonies treated/untreated plates) [1, 12]: 1.0
- revertant colonies, average [1, 13]: 165.5
- t/c (revertant colonies treated/untreated plates) [1, 13]: 0.8
- revertant colonies, average [2, 14]: 50.0
- t/c (revertant colonies treated/untreated plates) [2, 14]: 1.1
- revertant colonies, average [2, 15]: 48.0
- t/c (revertant colonies treated/untreated plates) [2, 15]: 1.0
- revertant colonies, average [2, 16]: 49.5
- t/c (revertant colonies treated/untreated plates) [2, 16]: 1.1
- revertant colonies, average [2, 17]: 51.0
- t/c (revertant colonies treated/untreated plates) [2, 17]: 1.1
- revertant colonies, average [2, 18]: 45.5
- t/c (revertant colonies treated/untreated plates) [2, 18]: 1.0
- revertant colonies, average [2, 19]: 40.5
- t/c (revertant colonies treated/untreated plates) [2, 19]: 1.0
- revertant colonies, average [2, 20]: 40.5
- t/c (revertant colonies treated/untreated plates) [2, 20]: 1.0
- revertant colonies, average [2, 21]: 43.5
- t/c (revertant colonies treated/untreated plates) [2, 21]: 1.1
- revertant colonies, average [2, 22]: 41.0
- t/c (revertant colonies treated/untreated plates) [2, 22]: 1.1
- revertant colonies, average [2, 23]: 39.0
- t/c (revertant colonies treated/untreated plates) [2, 23]: 1.0
- revertant colonies, average [3, 24]: 88.5
- t/c (revertant colonies treated/untreated plates) [3, 24]: 0.8
- revertant colonies, average [3, 25]: 100.5
- t/c (revertant colonies treated/untreated plates) [3, 25]: 0.9
- revertant colonies, average [3, 26]: 92.5
- t/c (revertant colonies treated/untreated plates) [3, 26]: 0.8
- revertant colonies, average [3, 27]: 104.5
- t/c (revertant colonies treated/untreated plates) [3, 27]: 1.0
- revertant colonies, average [3, 28]: 101.0
- t/c (revertant colonies treated/untreated plates) [3, 28]: 0.9
- revertant colonies, average [3, 29]: 82.5
- t/c (revertant colonies treated/untreated plates) [3, 29]: 1.1
- revertant colonies, average [3, 30]: 80.5
- t/c (revertant colonies treated/untreated plates) [3, 30]: 1.0
- revertant colonies, average [3, 31]: 82.0
- t/c (revertant colonies treated/untreated plates) [3, 31]: 1.1
- revertant colonies, average [3, 32]: 86.5
- t/c (revertant colonies treated/untreated plates) [3, 32]: 1.1
- revertant colonies, average [3, 33]: 86.0
- t/c (revertant colonies treated/untreated plates) [3, 33]: 1.1
